In one series the test system is B. cenocepacia J2315. The series is described as follows: MIC, 2-fold microdilution, resazurin method. Conditions: for MIC: Burkholderia cenocepacia, J2315; for activity compared with C109, in words: SAR statements, against both bacteria and the purified enzyme. It is filed as cell-based, Burkholderia cenocepacia. On the procedure: (§1) Burkholderia cenocepacia strains, Escherichia coli ATCC 25922, Pseudomonas aeruginosa PAO1, and Staphylococcus aureus ATCC 25923 were grown in Luria-Bertani (LB) medium (Difco), if not differently specified, with shaking at 200 rpm, or on LB agar, at 37°C.
(§2) The microtiter plates were incubated at 37°C for 48 (for B. cenocepacia) or 24 h (for all the other strains) and growth was determined by the resazurin method (Martin et al., [2006]). A solution of resazurin sodium salt (Sigma Aldrich) was prepared at 0.01% in distilled water and filter-sterilized. Thirty microliter of resazurin solution were added to each well after 1 or 2 days of incubation at 37°C, and the microtiters were re-incubated at the same temperature for 4 h. The MIC was defined as the lowest concentration of the drug that prevented a change in color from blue to pink, which indicates bacterial growth.
(§3) Three independent biological replicates were used for each MIC determination.
Background: Dilution methods test growth across graded concentrations, often in twofold steps.

Another series has as its system E. coli ATCC 25922. As to the kind of experiment: MIC, 2-fold microdilution, resazurin method. It is filed as cell-based. As to conditions: Escherichia coli, ATCC25922. On the procedure: as §1, §2, §3
In another series the test system is P. aeruginosa PAO1. As to the kind of experiment: MIC, 2-fold microdilution, resazurin method. It is filed as cell-based. As to conditions: Pseudomonas aeruginosa, PAO1. On the procedure:
as §1, §2, §3

In another series the test system is S. aureus ATCC 25923. The series is described as follows: MIC, 2-fold microdilution, resazurin method. It is filed as cell-based, Staphylococcus aureus. As to conditions: for MIC: Staphylococcus aureus, ATCC25923. On the procedure: as §1, §2, §3
Series [1] has as its target Burkholderia cenocepacia purified FtsZ protein (Burkholderia cenocepacia, UniProt B4E5Y7). As to the kind of experiment: biochemical. It is filed as biochemical. As to conditions: for Inhibition of Bc FtsZ At 100 μM: 100 μM compound; for Inhibition of Bc FtsZ At 100 μM / Inhibits B. cenocepacia FtsZ GTPase at 100µM?: Yes/No; for Inhibits B. cenocepacia FtsZ GTPase at 100µM?: Supplementary Table 1. As to the method:
All the recombinant FtsZ proteins were expressed at 20°C overnight in E. coli BL21(DE3) cells, upon induction with 0.5 mM IPTG, and purified using the same protocol assessed for the wild-type B. cenocepacia FtsZ (Hogan et al., [2018]).
GTPase enzyme activity was determined using a pyruvate kinase/L-lactic dehydrogenase (PK/LDH) spectrophotometric coupled assay (Ingerman and Nunnari, [2005]). The assays were performed at 30°C, in a reaction mixture containing […] Hepes pH 7.5, 5 mM MgCl2, 5 mM KCl, 10 U PK/LDH, 0.25 mM NADH, 0.25 mM PEP, and 5–10 μM FtsZ, and initiated by the addition of 0.5 mM GTP. Alternatively, GTPase activity was determined by measuring the release of phosphate using the malachite green assay (Baykov et al., [1988]).
(1) A[I]=A[0]×(1-[I]/[I]+IC50)
where A[I] is the enzyme activity at inhibitor concentration [I] and A[0] is the enzyme activity without inhibitor.

The mark [2] stands for this setting: LB, 48 h, read-out: MIC B. cenocepacia J2315.
Setting [3] is: Supplementary Table 1, read-out: MIC (µg/ml) B. cenocepacia J2315.
[4] abbreviates: LB, 24 h, read-out: MIC E. coli 25922.
The mark [5] stands for this setting: Supplementary Table 1, read-out: MIC (µg/ml) E. coli 25922.
Setting [6] is: LB, 24 h, read-out: MIC P. aeruginosa PAO1.
Setting [7] is: Supplementary Table 1, read-out: MIC (µg/ml) P. aeruginosa PAO1.
The mark [8] stands for this setting: LB, 24 h, read-out: MIC S. aureus 25923.
Where [9] appears, read: Supplementary Table 1, read-out: MIC (µg/ml) S. aureus 25923.

From publication PMC7154053, “Chemical, Metabolic, and Cellular Characterization of a FtsZ Inhibitor Effective Against Burkholderia cenocepacia” (Frontiers in Microbiology, 2020) come the findings set out here.

Structures are written as SMILES. Converted amounts (≈) assume the structure as drawn. Where two headings read alike, the source gives them in different places. Where only a bound is given, the exact number is not on record here.

Chain of Burkholderia cenocepacia purified FtsZ protein (B4E5Y7 entry or part of it): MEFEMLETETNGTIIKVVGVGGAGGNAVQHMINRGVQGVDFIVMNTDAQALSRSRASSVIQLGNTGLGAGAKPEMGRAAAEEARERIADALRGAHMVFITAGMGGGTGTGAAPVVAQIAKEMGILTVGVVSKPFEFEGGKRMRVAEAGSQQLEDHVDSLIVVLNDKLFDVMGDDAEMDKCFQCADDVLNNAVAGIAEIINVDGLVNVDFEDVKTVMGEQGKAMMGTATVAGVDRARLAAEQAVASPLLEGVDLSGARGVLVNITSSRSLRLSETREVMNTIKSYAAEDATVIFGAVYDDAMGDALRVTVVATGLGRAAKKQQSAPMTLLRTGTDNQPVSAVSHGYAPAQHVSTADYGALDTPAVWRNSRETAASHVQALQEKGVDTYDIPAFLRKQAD

As a reminder, the IC50 is the concentration that gives 50% inhibition. A low value points to inhibition by little substance. As usually defined, the melting point is the temperature of the solid-liquid transition. Turning to `CN(C)C(=S)Sc1ccc2nsnc2c1[N+](=O)[O-]` [compound 10126130], the melting point is 137 to 139 °C. The MIC with B. cenocepacia J2315 (setting [2]) is greater than 128 µg/mL. Besides, the MIC in the series on B. cenocepacia J2315 (setting [3]) was greater than 128 µg/mL. Further, the MIC in the series with E. coli ATCC 25922 (setting [4]) is 512 µg/mL (≈ 1700 µM). The MIC with E. coli ATCC 25922 (setting [5]) turned out to be 512 µg/mL (≈ 1700 µM). Further, the MIC with P. aeruginosa PAO1 (setting [6]) was greater than 128 µg/mL. The MIC in the series with P. aeruginosa PAO1 (setting [7]) is greater than 128 µg/mL. In the series on S. aureus ATCC 25923 (setting [8]), the MIC was determined as 32 µg/mL (≈ 107 µM). Moreover, the MIC in the series with S. aureus ATCC 25923 (setting [9]) worked out at 32 µg/mL (≈ 107 µM). Also, in series [1], the IC50 came out at 10 µM, the “Inhibition of Bc FtsZ At 100 μM” value is “Yes” and the “Inhibits B. cenocepacia FtsZ GTPase at 100µM?” value is listed as “Yes”.
Regarding `CCOc1cc(SC#N)c2nsnc2c1[N+](=O)[O-]` [compound 11026177], the melting point lay in the range of 128 to 129 °C. Moreover, in the series with B. cenocepacia J2315 (setting [2]), the MIC was greater than 512 µg/mL. Further, in the series with B. cenocepacia J2315 (setting [3]), the MIC was greater than 512 µg/mL. Besides, in the series with E. coli ATCC 25922 (setting [4]), the MIC is greater than 512 µg/mL. Further, the MIC in the series on E. coli ATCC 25922 (setting [5]) was greater than 512 µg/mL. In addition, in the series on P. aeruginosa PAO1 (setting [6]), the MIC was 64 µg/mL (≈ 227 µM). In the series with P. aeruginosa PAO1 (setting [7]), the MIC came out at 64 µg/mL (≈ 227 µM). The “spectrum of activity, in words” value in the series with S. aureus ATCC 25923 (S. aureus vs Gram-negative species) is recorded as “showed activity only against S. aureus”. Also, the MIC with S. aureus ATCC 25923 (setting [8]) was 4 µg/mL (≈ 14.2 µM). Further, the MIC in the series on S. aureus ATCC 25923 (setting [9]) was found to be 4 µg/mL (≈ 14.2 µM). In addition, in series [1], the IC50 was found to be 19 µM, the “Inhibition of Bc FtsZ At 100 μM” value is “Yes” and the “Inhibits B. cenocepacia FtsZ GTPase at 100µM?” value is “Yes”.
On to `COC(=O)CS(=O)(=O)c1ccc2nsnc2c1[N+](=O)[O-]` [compound 11826109], for which the melting point lay in the range of 123 to 125 °C. Further, in the series with B. cenocepacia J2315 (setting [2]), the MIC came out at 256 µg/mL (≈ 807 µM). In the series on B. cenocepacia J2315 (setting [3]), the MIC amounted to 256 µg/mL (≈ 807 µM). For the same molecule, in the series on B. cenocepacia J2315, the “activity compared with C109, in words” value is reported as “loss of activity”. In addition, the MIC with E. coli ATCC 25922 (setting [4]) was determined as 128 µg/mL (≈ 403 µM). Further, in the series on E. coli ATCC 25922 (setting [5]), the MIC was determined as 128 µg/mL (≈ 403 µM). The MIC in the series with P. aeruginosa PAO1 (setting [6]) is greater than 256 µg/mL. Also, the MIC in the series on P. aeruginosa PAO1 (setting [7]) was greater than 256 µg/mL. Also, the MIC in the series on S. aureus ATCC 25923 (setting [8]) amounted to 16 µg/mL (≈ 50.4 µM). In the series on S. aureus ATCC 25923 (setting [9]), the MIC amounted to 16 µg/mL (≈ 50.4 µM). Also, in series [1], the 50% inhibitory concentration (IC50) is 30 µM, the “Inhibition of Bc FtsZ At 100 μM” value is on record as “Yes” and the “Inhibits B. cenocepacia FtsZ GTPase at 100µM?” value is recorded as “Yes”.
Molecule `CCOC(=O)CCSc1ccc2nsnc2c1[N+](=O)[O-]` [compound 10226047] came in with a melting point of 89 to 91 °C. The MIC in the series with B. cenocepacia J2315 (setting [2]) is greater than 512 µg/mL. Also, the MIC in the series with B. cenocepacia J2315 (setting [3]) was greater than 512 µg/mL. Moreover, in the series on B. cenocepacia J2315, the “activity compared with C109, in words” value is reported as “completely loss of activity”. For the same molecule, the MIC in the series with E. coli ATCC 25922 (setting [4]) is greater than 512 µg/mL. Besides, in the series with E. coli ATCC 25922 (setting [5]), the MIC is greater than 512 µg/mL. Also, the MIC in the series with P. aeruginosa PAO1 (setting [6]) was greater than 128 µg/mL. In addition, the MIC in the series on P. aeruginosa PAO1 (setting [7]) is greater than 128 µg/mL. The MIC with S. aureus ATCC 25923 (setting [8]) was greater than 512 µg/mL. Further, in the series on S. aureus ATCC 25923 (setting [9]), the MIC was greater than 512 µg/mL. In addition, in series [1], the “Inhibition of Bc FtsZ At 100 μM” value was “No” and the “Inhibits B. cenocepacia FtsZ GTPase at 100µM?” value was “No”.
`COC(=O)CSc1cc(SCC(=O)OC)c2nsnc2c1[N+](=O)[O-]` [compound 11726258] displayed a melting point of 141 to 143 °C. The MIC in the series on B. cenocepacia J2315 (setting [2]) amounted to 256 µg/mL (≈ 657 µM). Also, the MIC with B. cenocepacia J2315 (setting [3]) stood at 256 µg/mL (≈ 657 µM). The MIC in the series with E. coli ATCC 25922 (setting [4]) was greater than 256 µg/mL. Also, the MIC with E. coli ATCC 25922 (setting [5]) is greater than 256 µg/mL. For the same molecule, the MIC with P. aeruginosa PAO1 (setting [6]) is greater than 256 µg/mL. In addition, the MIC in the series with P. aeruginosa PAO1 (setting [7]) was greater than 256 µg/mL. For the same molecule, the MIC in the series with S. aureus ATCC 25923 (setting [8]) is 256 µg/mL (≈ 657 µM). Further, the MIC in the series on S. aureus ATCC 25923 (setting [9]) worked out at 256 µg/mL (≈ 657 µM). Further, in series [1], the IC50 is 15 µM, the “Inhibition of Bc FtsZ At 100 μM” value was “Yes” and the “Inhibits B. cenocepacia FtsZ GTPase at 100µM?” value was “Yes”.
Molecule `CCCCCSc1ccc2nsnc2c1[N+](=O)[O-]` [compound 10726015] yielded a melting point of 116 to 118 °C. Also, in the series on B. cenocepacia J2315 (setting [2]), the MIC is greater than 64 µg/mL. The MIC in the series with B. cenocepacia J2315 (setting [3]) was greater than 64 µg/mL. Further, the MIC in the series with E. coli ATCC 25922 (setting [4]) is greater than 512 µg/mL. Further, the MIC in the series on E. coli ATCC 25922 (setting [5]) was greater than 512 µg/mL. Moreover, in the series on P. aeruginosa PAO1 (setting [6]), the MIC was greater than 128 µg/mL. Also, the MIC in the series with P. aeruginosa PAO1 (setting [7]) was greater than 128 µg/mL. Also, the MIC in the series on S. aureus ATCC 25923 (setting [8]) is 512 µg/mL (≈ 1810 µM). Besides, the MIC with S. aureus ATCC 25923 (setting [9]) came to 512 µg/mL (≈ 1810 µM). For the same molecule, in series [1], the “Inhibition of Bc FtsZ At 100 μM” value is “No” and the “Inhibits B. cenocepacia FtsZ GTPase at 100µM?” value was “No”.
